According to patent US20100040568A1, “Steroidal compounds as melanogenesis modifiers and uses thereof” (SkinMedica, Inc., priority 2008, published 2010):

How the values were obtained:
[1] = test system: melan-a cells; test: Melanin assay in cultured murine melanocytes (melan-a); type: cell-based; settings: 72 hours; for % of control remaining @ 1 μM / % of control remaining @ 5 μM: melanin, melan-a cells
Description: The Spectrum Collection library consisting of 2000 drug compounds or natural products was screened to identify novel pigmentation inhibitors or stimulators in cultured murine melanocytes (melan-a). Compounds were dissolved in dimethylsulfoxide (DMSO) to a final concentration of 10 mM. Screening was performed with cultured melanocytes in 24-well plates followed by melanin assay (see below). A minimum change of 50% in melanin formation was established as significant for a pigmentation inhibitor or stimulator. DMSO was used as a negative control and the widely used depigmenting agent, hydroquinone, was used as a positive control on every plate. […] Melan-a cells were plated at 5×10^4 cells per well in 1 ml of culture media in 24-well plates the day before adding the library compounds. All compounds were added at the indicated final concentrations. Cells were harvested after 72 hours of incubation, and melanin assay was performed. For the primary and secondary screening, cells were harvested and dissolved in 200 μl of 2N NaOH in 20% DMSO at 70° C. A 180-μl aliquot of the resulting solution was measured for absorbance at 490 nm. Cells are harvested in extraction buffer (1% Triton X-100, 50 mM Tris, 2 mM EDTA, 150 mM NaCl, pH 7.5) containing a complete protease inhibitor cocktail (Roche). The lysates were centrifuged at 14,000 rpm for 10 minutes at 4° C. BCA protein assay kit (Pierce) was used to measure the protein concentrations of the supernatants, and bovine serum albumin was used as a standard. […] A 180-μl aliquot of the resulting solution was measured for absorbance at 490 nm. The melanin contents were normalized to the total amount of protein. The IC50 value for inhibition of cellular melanin synthesis for conessine was determined by culturing melan-a cells with various concentrations of conessine for 72 hours. Briefly, melan-a cells were plated at 5×10^4 cells per well in 1 ml of culture media in 24-well plates the day before adding conessine. Conessine was added at the indicated final concentrations. DMSO was used as a negative control. Cells were harvested after 72 hours of incubation, and spectrophotometric melanin assay was performed on cell pellets. The melanin contents were normalized to the total amount of protein. Cell viability was determined by using the CellTiter 96 aqueous nonradioactive cell proliferation assay. […] Licorice extract was tested under similar conditions as conessine for its ability to decrease melanin synthesis in melan-a cells (FIG. 11c). Melan-a cells were plated at 5×10^4 cells per well in 1 ml of culture media in 24-well plates the day before adding Licorice extract. 70% ethanol was used as control and the Licorice extract was diluted in cell culture media at the indicated concentrations. […] Cells were harvested after 72 hours of incubation, and spectrophotometric melanin assay was performed on cell pellets. The melanin contents were normalized to the total amount of protein. Cell viability was determined by using the CellTiter 96 aqueous nonradioactive cell proliferation assay.

[2] = test system: UV-induced pigmentation; settings: topical application of 0.5%; cited from earlier work

| Compound | % of control remaining @ 1 μM [1] | % of control remaining @ 5 μM [1] | inhibition of UV-induced pigmentation [2] | effect on melanin synthesis in melan-a cells ([1]; indicated concentrations) |
| --- | --- | --- | --- | --- |
| C[C@H]1C2CCC3[C@@H]4CC=C5C[C@@H](N(C)C)CC[C@]5(C)C4CC[C@@]32CN1C (mixture of isomers) [Compound 2, Con-5-enine, 3β-(dimethylamino)-, (±)-(8Cl) (Registry No: 14546-12-4)] | 78.4 % of control | 38.5 % of control | – | – |
| CC1C2CCC3C4CC=C5CC(N(C)C)CCC5(C)C4CCC32CN1C (stereo not drawn) [Compound 3, N,N-Dimethylcon-5-enin-3-amine] | 59.2 % of control | 28.4 % of control | – | – |
| CC1(C)C=Cc2c(ccc3c2OC[C@@H](c2ccc(O)cc2O)C3)O1 [glabridin] | – | – | can inhibit the UV-induced pigmentation | – |
| Oc1ccc(O)cc1 [hydroquinone, reference compound] | – | – | – | significantly inhibited melanogenesis in a dose-dependent manner |
